Assays:
Format in all cases: in vivo
Abutilon theophrasti [1] = assay: Pre-emergence herbicidal action, ABUTH; details: dosage 320 g/ha, scored visually after 3 weeks vs untreated controls
How it was run: (§1)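 Percent herbicidal activity rated by eye 3 weeks after pre-emergence soil-surface application, compared with untreated pots. Seeds sat under sandy loam; sprays carried 0.2% wetting agent.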

Alopecurus myosuroides [2] = assay: Pre-emergence herbicidal action, ALOMY; details: dosage 320 g/ha, scored visually after 3 weeks vs untreated controls
How it was run: as §1

Amaranthus retroflexus [3] = assay: Pre-emergence herbicidal action, AMARE; details: dosage 320 g/ha, scored visually after 3 weeks vs untreated controls
How it was run: as §1

Avena fatua [4] = assay: Pre-emergence herbicidal action, AVEFA; details: dosage 320 g/ha, scored visually after 3 weeks vs untreated controls
How it was run: as §1

Cyperus serotinus = assay: Pre-emergence herbicidal action, CYPES; details: dosage 320 g/ha, scored visually after 3 weeks vs untreated controls
How it was run: as §1

Matricaria inodora = assay: Pre-emergence herbicidal action, MATIN; details: dosage 320 g/ha, scored visually after 3 weeks vs untreated controls
How it was run: as §1

Setaria viridis [5] = assay: Pre-emergence herbicidal action, SETVI; details: dosage 320 g/ha, scored visually after 3 weeks vs untreated controls
How it was run: as §1

Stellaria media [6] = assay: Pre-emergence herbicidal action, STEME; details: dosage 320 g/ha, scored visually after 3 weeks vs untreated controls
How it was run: as §1

Viola tricolor [7] = assay: Pre-emergence herbicidal action, VIOTR; details: dosage 320 g/ha, scored visually after 3 weeks vs untreated controls
How it was run: as §1

Abutilon theophrasti [8] = assay: Post-emergence herbicidal action, ABUTH; details: 80 g/ha, Table D
How it was run: (§2)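 Greenhouse-grown weeds in sandy loam, treated at the one-leaf stage 2 to 3 weeks after sowing with WP or EC formulations sprayed as aqueous suspension/emulsion at 600 to […] water plus 0.2% wetting agent. Visual scoring after about 3 weeks versus untreated controls, 0% (like control) to 100% (plants dead).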

Alopecurus myosuroides [9] = assay: Post-emergence herbicidal action, ALOMY; details: 80 g/ha, Table C
How it was run: as §2

Amaranthus retroflexus [10] = assay: Post-emergence herbicidal action, AMARE; details: 80 g/ha, Table D
How it was run: as §2

Avena fatua [11] = assay: Post-emergence herbicidal action, AVEFA; details: 80 g/ha, Table C
How it was run: as §2

Pharbitis purpureum = assay: Post-emergence herbicidal action, PHBPU; details: 80 g/ha, Table D
How it was run: as §2

Setaria viridis [12] = assay: Post-emergence herbicidal action, SETVI; details: 80 g/ha, Table C
How it was run: as §2

Stellaria media [13] = assay: Post-emergence herbicidal action, STEME; details: 80 g/ha, Table D
How it was run: as §2

Viola tricolor [14] = assay: Post-emergence herbicidal action, VIOTR; details: 80 g/ha, Table D
How it was run: as §2

ECHCG = assay: Post-emergence herbicidal action, ECHCG; details: 80 g/ha, Table C
How it was run: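 Weed and crop plants grown in sandy loam in the greenhouse, treated at the one-leaf stage 2–3 weeks after sowing. Damage scored visually after about 3 weeks vs untreated controls (0% = control, 100% = dead).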

SMILES | herbicidal activity ABUTH (Abutilon theophrasti [1]) [%] | herbicidal activity ALOMY (Alopecurus myosuroides [2]) [%] | herbicidal activity AMARE (Amaranthus retroflexus [3]) [%] | herbicidal activity AVEFA (Avena fatua [4]) [%] | herbicidal activity CYPES (Cyperus serotinus) [%] | herbicidal activity MATIN (Matricaria inodora) [%] | herbicidal activity SETVI (Setaria viridis [5]) [%] | Herbicidal activity STEME (Stellaria media [6]) [%] | herbicidal activity VIOTR (Viola tricolor [7]) [%] | herbicidal activity ABUTH (Abutilon theophrasti [8]) [%] | herbicidal activity ALOMY (Alopecurus myosuroides [9]) [%] | herbicidal activity AMARE (Amaranthus retroflexus [10]) [%] | herbicidal activity AVEFA (Avena fatua [11]) [%] | Herbicidal activity PHBPU (Pharbitis purpureum) [%] | herbicidal activity SETVI (Setaria viridis [12]) [%] | Herbicidal activity STEME (Stellaria media [13]) [%] | herbicidal activity VIOTR (Viola tricolor [14]) [%] | Herbicidal activity ECHCG (ECHCG) [%]
CCc1c(C(=O)Nc2nnnn2CC)ccc(C(F)F)c1[S+]([O-])CC (stereo not drawn) [Example 2-17] | 100 | 100 | 100 | 100 | 100 | 100 | 100 | 100 | 100 | 100 | 90 | 100 | 100 | 100 | 90 | 100 | 100 | 90
CCc1c(C(=O)Nc2nnnn2CC)ccc(C(F)F)c1S(=O)(=O)CC [Example 2-18] | 100 | 100 | 100 | 100 | 90 | 100 | 100 | 100 | 100 | 100 | 80 | 100 | 100 | 100 | 90 | 100 | 100 | 90
CCn1nnnc1NC(=O)c1ccc(C(F)F)c(SC)c1C1CC1 [Example 2-25] | 100 | 100 | 100 | 100 | 100 | 100 | 100 | 100 | 100 | 100 | 100 | 100 | 100 | 100 | 100 | 100 | 100 | 100
CCn1nnnc1NC(=O)c1ccc(C(F)F)c([S+](C)[O-])c1C1CC1 (stereo not drawn) [Example 2-26] | 100 | 100 | 100 | 100 | 90 | 100 | 100 | 100 | 100 | 90 | 90 | 100 | 100 | 90 | 100 | 100 | 100 | 100
CCn1nnnc1NC(=O)c1ccc(C(F)F)c(S(C)(=O)=O)c1C1CC1 [Example 2-27] | 100 | 100 | 100 | 100 | 100 | 100 | 100 | 100 | 100 | 100 | 90 | 100 | 100 | 90 | 100 | 100 | 100 | 100
CCSc1c(C(F)F)ccc(C(=O)Nc2nnnn2CC)c1C1CC1 [Example 2-28] | 100 | 100 | 100 | 100 | 100 | 100 | 100 | 100 | 100 | 100 | 90 | 100 | 100 | 100 | 100 | 100 | 100 | 100
CCn1nnnc1NC(=O)c1ccc(C(F)F)c([S+]([O-])CC)c1C1CC1 (stereo not drawn) [Example 2-29] | 100 | 100 | 100 | 100 | 90 | 100 | 100 | 100 | 100 | 100 | 100 | 100 | 90 | 90 | 100 | 100 | 100 | 100
CCn1nnnc1NC(=O)c1ccc(C(F)F)c(S(=O)(=O)CC)c1C1CC1 [Example 2-30] | 100 | 100 | 100 | 100 | 90 | 100 | 100 | 100 | 100 | 100 | 90 | 100 | 90 | 90 | 100 | 100 | 100 | 100

Reference: patent US20230183193A1, “4-DIFLUOROMETHYL BENZOYL AMIDES WITH HERBICIDAL ACTION” (BAYER CROPSCIENCE AKTIENGESELLSCHAFT, priority 2017, published 2023)
